Article doi:10.1101/2025.11.20.689572v1 (biorxiv, 2025)
Read-outs that look alike come from different tables or passages of the source.

Columns and labels:
[1] = biological target: CHRM3 (Homo sapiens, UniProt P20309); experiment: cell-based; design: species or system HEK293; Fluo-4 Direct calcium mobilization on FLIPR-Tetra; conditions: Assay=Calcium; agonist mode
[2] = biological target: HRH3 (Homo sapiens, UniProt Q9Y5N1); experiment: cell-based; design: species or system HTLA; PRESTO-Tango beta-arrestin2 recruitment, luciferase luminescence, concentration-response; conditions: Assay=Tango; agonist mode
[3] = biological target: T1, 5-HT2B (Homo sapiens, UniProt P41595); experiment: competitive radioligand binding, HEK293 membranes
T1 construct: gene HTR2B; full-length receptor; HEK293 cell membranes
Source text: competitive radioligand binding, HEK293 membranes on 5-HT2B

[4] = biological target: T2, α1B (Homo sapiens, UniProt P35368); experiment: biochemical; design: species or system HEK293; PDSP competitive radioligand binding, membranes of transfected HEK293 cells, filtration, Ki by Cheng-Prusoff
T2 construct: gene ADRA1B
Description: (§1) Competitive radioligand binding assays were performed at the NIMH Psychoactive Drug Screening Program (PDSP) using membranes from transiently transfected HEK293 cells in 96-well format as described. Complete, target-specific protocols are available at the PDSP website (https://pdsp.unc.edu/pdspweb/?site=assays). Primary screenings were run at a single test concentration (10 µM) in quadruplicate. […] Secondary assays were conducted in triplicate using 12-point serial dilutions (0, 0.1, 0.3, 1, 3, 10, 30, 100, 300 nM; 1, 3, 10 µM). Assays were performed in a final volume of 125 µL per well in binding buffer, as detailed in the NIMH PDSP protocols (e.g., standard binding buffer: 50 mM Tris-HCl, pH 7.4, 10 mM MgCl2, 0.1 mM EDTA). Radioligand concentrations were chosen near the target-specific Kd. Total and nonspecific binding were defined in the absence and presence, respectively, of 10 µM reference ligand specific for each receptor. After 90 min incubation at room temperature, reactions were terminated by vacuum filtration onto 0.3% polyethyleneimine-pretreated UniFilter-96 GF/C Microplates using a FilterMate harvester, washed three times with ice-cold buffer (50 mM Tris HCl, pH 7.4), dried, treated with MicroScint-O [compound left out] scintillation cocktails, and counted on a MicroBeta counter. Equilibrium inhibition constants (Ki) were calculated from fitted IC50 values using the Cheng–Prusoff equation [14] with the assay-specific radioligand concentration and Kd. TABLE 1. […] Results represented mean ± SEM from a minimum of 3 independent assays, each in triplicate. ND=not determined.

[5] = biological target: T3, MOR (Homo sapiens, UniProt P35372); experiment: biochemical; design: species or system HEK293; PDSP competitive radioligand binding, membranes of transfected HEK293 cells, filtration, Ki by Cheng-Prusoff
T3 construct: gene OPRM1
Description: as §1

[6] = biological target: T4, β1 (Homo sapiens, UniProt P08588); experiment: biochemical; design: species or system HEK293; PDSP competitive radioligand binding, membranes of transfected HEK293 cells, filtration, Ki by Cheng-Prusoff
T4 construct: gene ADRB1
Description: as §1

[7] = biological target: T5, DRD4 (Homo sapiens, UniProt P21917); experiment: biochemical; design: species or system HEK293; PDSP competitive radioligand binding, membranes of transfected HEK293 cells, filtration, Ki by Cheng-Prusoff
T5 sequence (P21917 1-419): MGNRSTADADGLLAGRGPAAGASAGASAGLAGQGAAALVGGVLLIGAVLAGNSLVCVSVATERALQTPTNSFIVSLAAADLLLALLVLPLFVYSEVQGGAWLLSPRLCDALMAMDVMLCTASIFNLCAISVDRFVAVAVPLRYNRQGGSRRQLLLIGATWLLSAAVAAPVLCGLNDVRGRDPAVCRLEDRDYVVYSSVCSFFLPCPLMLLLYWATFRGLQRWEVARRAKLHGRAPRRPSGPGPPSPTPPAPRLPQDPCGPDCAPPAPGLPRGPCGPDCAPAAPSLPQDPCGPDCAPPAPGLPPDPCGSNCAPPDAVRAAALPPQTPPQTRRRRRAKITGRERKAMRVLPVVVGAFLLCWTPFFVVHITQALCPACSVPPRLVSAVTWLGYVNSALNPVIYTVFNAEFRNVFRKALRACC
Description: as §1

[8] = biological target: T6, 5-HT3 (Homo sapiens, UniProt P46098); experiment: biochemical; design: species or system HEK293; PDSP competitive radioligand binding, membranes of transfected HEK293 cells, filtration, Ki by Cheng-Prusoff
T6 construct: gene HTR3A
Description: as §1

[9] = biological target: DRD2 (Homo sapiens, UniProt P14416); experiment: biochemical; design: species or system HEK293; PDSP competitive radioligand binding, membranes of transfected HEK293 cells, filtration, Ki by Cheng-Prusoff
Description: as §1

[10] = biological target: T7, α1D (Homo sapiens, UniProt P25100); experiment: biochemical; design: species or system HEK293; PDSP competitive radioligand binding, membranes of transfected HEK293 cells, filtration, Ki by Cheng-Prusoff
T7 construct: gene ADRA1D
Description: as §1

[11] = biological target: T8, DOR (Homo sapiens, UniProt P41143); experiment: biochemical; design: species or system HEK293; PDSP competitive radioligand binding, membranes of transfected HEK293 cells, filtration, Ki by Cheng-Prusoff
T8 construct: gene OPRD1
Description: as §1

[12] = biological target: T9, D5 (Homo sapiens, UniProt P21918); experiment: biochemical; design: species or system HEK293; PDSP competitive radioligand binding, membranes of transfected HEK293 cells, filtration, Ki by Cheng-Prusoff
T9 construct: gene DRD5
Description: as §1

[13] = biological target: T10, 5-HT2C (Homo sapiens, UniProt P28335); experiment: competitive radioligand binding, HEK293 membranes
T10 construct: gene HTR2C; full-length receptor; HEK293 cell membranes
Source text: competitive radioligand binding, HEK293 membranes on 5-HT2C

[14] = read-out: N-desmethyl-xanomeline (PDSP) pKi (converted)

Chain of HRH3 (Q9Y5N1 whole entry): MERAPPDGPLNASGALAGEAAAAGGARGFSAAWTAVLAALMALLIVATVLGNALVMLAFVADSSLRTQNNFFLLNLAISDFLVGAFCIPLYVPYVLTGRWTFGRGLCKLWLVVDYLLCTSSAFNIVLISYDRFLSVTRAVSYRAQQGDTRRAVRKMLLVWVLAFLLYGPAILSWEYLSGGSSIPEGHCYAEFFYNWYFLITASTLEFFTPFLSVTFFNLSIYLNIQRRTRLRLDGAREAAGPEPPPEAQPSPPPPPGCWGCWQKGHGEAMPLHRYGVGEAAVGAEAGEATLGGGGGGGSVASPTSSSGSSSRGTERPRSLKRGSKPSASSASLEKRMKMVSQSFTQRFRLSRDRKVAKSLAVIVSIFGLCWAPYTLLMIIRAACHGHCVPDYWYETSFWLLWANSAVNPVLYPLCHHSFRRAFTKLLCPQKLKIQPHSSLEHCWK
T4 sequence (P08588 whole entry): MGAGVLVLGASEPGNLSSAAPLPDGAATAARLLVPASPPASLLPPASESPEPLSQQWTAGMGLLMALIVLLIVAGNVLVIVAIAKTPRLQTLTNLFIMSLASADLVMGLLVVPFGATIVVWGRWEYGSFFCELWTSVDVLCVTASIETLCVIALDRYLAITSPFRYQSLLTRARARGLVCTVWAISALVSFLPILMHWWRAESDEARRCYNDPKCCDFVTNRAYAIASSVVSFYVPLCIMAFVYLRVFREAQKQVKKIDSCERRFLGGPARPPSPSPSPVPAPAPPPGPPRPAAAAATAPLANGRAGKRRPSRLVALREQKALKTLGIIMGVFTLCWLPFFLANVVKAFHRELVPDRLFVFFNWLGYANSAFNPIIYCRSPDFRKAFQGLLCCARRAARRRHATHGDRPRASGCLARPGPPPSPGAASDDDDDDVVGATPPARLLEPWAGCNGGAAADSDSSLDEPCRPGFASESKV
T2 sequence (P35368 whole entry): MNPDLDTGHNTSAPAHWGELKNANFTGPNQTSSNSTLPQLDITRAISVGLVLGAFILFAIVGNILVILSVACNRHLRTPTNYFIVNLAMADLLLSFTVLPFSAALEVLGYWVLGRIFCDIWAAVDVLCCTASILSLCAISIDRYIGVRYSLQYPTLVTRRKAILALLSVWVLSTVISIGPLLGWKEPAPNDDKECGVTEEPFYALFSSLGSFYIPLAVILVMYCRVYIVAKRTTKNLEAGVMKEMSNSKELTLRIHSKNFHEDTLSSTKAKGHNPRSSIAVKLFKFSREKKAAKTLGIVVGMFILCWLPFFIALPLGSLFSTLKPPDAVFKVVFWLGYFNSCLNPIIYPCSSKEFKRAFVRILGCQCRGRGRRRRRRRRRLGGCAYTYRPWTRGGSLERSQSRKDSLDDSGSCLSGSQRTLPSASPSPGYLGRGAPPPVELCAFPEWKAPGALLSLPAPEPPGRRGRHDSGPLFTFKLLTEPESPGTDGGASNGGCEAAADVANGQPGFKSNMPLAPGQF
Chain of DRD2 (P14416 whole entry): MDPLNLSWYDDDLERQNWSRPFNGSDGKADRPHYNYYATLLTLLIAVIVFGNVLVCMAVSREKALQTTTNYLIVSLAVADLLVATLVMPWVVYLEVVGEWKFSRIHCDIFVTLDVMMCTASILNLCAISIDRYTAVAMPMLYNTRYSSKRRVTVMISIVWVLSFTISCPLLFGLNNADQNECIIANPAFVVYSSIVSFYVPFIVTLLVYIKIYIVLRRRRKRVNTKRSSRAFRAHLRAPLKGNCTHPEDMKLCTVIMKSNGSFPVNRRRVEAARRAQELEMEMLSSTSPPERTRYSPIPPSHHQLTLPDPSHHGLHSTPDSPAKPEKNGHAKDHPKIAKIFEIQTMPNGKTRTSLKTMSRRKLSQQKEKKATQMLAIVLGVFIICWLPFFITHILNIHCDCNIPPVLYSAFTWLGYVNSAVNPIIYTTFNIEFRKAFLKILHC
T9 sequence (P21918 whole entry): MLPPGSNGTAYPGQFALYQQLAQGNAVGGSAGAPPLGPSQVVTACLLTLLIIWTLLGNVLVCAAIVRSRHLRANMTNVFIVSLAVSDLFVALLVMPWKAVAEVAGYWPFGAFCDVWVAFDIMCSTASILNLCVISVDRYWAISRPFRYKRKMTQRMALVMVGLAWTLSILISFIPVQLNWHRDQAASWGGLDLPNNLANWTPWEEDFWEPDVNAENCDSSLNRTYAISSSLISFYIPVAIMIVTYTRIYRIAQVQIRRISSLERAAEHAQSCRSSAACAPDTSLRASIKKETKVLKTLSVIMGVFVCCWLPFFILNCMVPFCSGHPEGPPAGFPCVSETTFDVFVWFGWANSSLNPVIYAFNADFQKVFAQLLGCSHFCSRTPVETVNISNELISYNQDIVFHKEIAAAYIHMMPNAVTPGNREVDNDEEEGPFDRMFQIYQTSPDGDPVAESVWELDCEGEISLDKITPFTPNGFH
T10 sequence (P28335 33-458): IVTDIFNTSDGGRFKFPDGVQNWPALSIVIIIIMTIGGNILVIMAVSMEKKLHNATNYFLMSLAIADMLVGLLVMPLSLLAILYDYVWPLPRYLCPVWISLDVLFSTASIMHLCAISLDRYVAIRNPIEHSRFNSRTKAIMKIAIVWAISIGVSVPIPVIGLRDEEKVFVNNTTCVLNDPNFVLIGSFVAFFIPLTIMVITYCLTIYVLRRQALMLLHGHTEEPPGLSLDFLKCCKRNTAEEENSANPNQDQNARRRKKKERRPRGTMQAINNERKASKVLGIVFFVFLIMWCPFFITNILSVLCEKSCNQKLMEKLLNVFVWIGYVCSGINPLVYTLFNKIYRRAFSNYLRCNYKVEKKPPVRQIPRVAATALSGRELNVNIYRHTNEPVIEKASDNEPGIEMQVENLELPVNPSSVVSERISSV
T3 sequence (P35372 whole entry): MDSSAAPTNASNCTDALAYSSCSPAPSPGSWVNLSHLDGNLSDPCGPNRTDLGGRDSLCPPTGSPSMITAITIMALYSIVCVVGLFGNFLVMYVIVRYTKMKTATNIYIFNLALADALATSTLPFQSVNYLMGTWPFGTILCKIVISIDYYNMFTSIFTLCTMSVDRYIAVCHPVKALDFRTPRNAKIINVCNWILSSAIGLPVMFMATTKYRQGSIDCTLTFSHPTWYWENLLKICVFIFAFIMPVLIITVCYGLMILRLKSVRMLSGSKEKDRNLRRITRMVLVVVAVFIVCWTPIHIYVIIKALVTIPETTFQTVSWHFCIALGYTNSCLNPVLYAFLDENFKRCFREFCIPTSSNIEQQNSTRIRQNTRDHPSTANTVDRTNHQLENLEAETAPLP
Chain of CHRM3 (P20309 whole entry): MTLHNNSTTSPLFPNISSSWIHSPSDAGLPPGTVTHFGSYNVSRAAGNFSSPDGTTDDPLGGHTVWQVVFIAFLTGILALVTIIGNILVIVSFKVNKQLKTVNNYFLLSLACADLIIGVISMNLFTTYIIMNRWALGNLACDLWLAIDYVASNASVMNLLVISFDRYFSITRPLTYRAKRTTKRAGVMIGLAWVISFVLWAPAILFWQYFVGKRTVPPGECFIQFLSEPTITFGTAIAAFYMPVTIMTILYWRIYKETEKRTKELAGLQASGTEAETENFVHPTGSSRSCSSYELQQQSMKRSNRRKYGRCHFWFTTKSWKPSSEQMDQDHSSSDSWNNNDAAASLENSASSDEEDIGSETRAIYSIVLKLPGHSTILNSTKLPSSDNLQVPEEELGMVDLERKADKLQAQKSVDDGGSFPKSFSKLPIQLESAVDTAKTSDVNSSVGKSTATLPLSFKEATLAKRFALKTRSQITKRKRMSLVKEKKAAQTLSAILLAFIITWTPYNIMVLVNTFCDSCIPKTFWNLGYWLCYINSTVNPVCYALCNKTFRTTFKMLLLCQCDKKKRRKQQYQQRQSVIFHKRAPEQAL
T1 sequence (P41595 whole entry): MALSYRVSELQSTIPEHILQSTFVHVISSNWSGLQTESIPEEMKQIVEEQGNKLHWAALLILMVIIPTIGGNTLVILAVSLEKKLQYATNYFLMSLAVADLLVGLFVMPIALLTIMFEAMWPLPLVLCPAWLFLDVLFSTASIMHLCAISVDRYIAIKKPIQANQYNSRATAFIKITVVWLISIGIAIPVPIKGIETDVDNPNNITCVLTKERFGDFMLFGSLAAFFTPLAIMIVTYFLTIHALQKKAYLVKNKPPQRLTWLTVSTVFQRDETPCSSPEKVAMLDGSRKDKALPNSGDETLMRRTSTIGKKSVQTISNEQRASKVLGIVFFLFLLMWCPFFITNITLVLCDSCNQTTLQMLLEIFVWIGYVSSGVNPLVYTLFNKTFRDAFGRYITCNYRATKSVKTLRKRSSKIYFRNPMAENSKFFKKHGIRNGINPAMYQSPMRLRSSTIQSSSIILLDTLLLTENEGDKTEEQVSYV
T7 sequence (P25100 whole entry): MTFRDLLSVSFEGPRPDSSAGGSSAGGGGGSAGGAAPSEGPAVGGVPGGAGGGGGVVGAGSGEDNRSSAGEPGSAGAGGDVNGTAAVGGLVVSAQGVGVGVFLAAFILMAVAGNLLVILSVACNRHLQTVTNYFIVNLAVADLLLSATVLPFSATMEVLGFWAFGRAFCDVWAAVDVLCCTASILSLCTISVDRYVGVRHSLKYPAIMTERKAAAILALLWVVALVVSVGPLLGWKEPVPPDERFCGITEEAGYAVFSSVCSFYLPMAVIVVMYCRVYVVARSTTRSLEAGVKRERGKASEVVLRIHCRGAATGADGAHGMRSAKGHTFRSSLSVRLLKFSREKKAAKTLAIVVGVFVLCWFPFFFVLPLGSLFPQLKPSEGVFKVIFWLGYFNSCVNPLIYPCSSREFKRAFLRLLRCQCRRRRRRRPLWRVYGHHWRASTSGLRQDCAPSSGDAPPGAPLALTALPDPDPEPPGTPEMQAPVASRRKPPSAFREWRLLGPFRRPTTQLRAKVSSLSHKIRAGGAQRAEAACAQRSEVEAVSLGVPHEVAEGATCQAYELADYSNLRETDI

SMILES: CCCCCCOc1nsnc1C1=CCCNC1 [N-desmethylxanomeline]
- EC50 [1]: 0.0641 µM
- EC50 [2]: 7.58 µM
- Ki [3]: 0.0158 µM
- Ki [4, 14]: 7.24 µM
- Ki [5, 14]: 7.94 µM
- Ki [6, 14]: 8.71 µM
- Ki [7, 14]: > 10 µM
- Ki [8, 14]: 2.4 µM
- Ki [9, 14]: 6.61 µM
- Ki [10, 14]: 3.31 µM
- Ki [11, 14]: > 10 µM
- Ki [12, 14]: > 10 µM
- Ki [13]: 0.324 µM

SMILES: CCCCCCOc1nsnc1C1=CCCN(C)C1 [Xanomeline]
- EC50 [1]: 0.034 µM
- EC50 [2]: 9.44 µM
- Ki [3]: 0.0398 µM
- Ki [4]: > 10 µM
- Ki [5]: > 10 µM
- Ki [6]: > 10 µM
- Ki [7]: 2 µM
- Ki [8]: > 10 µM
- Ki [9]: > 10 µM
- Ki [10]: > 10 µM
- Ki [11]: > 10 µM
- Ki [12]: > 10 µM
- Ki [13]: 0.204 µM
